Tests used:
[1] = tested on: rat; experiment: concentration in blood after dosing; negative times count back from the end of exposure; conditions: dosed: trichloroethylene, 50 ppm, inhalation, duration: 4 hr, male, Sprague Dawley
[2] = tested on: Rat; experiment: concentration in brain after dosing; conditions: dosed: Perfluorohexane-1-sulphonic acid – potassium salt, 16 mg/kg, oral, Female
[3] = tested on: Rat; experiment: concentration in plasma after dosing
[4] = tested on: Mouse; experiment: concentration in plasma after dosing; conditions: dosed: 2,4-Dichlorophenoxyacetic acid, Male, B6C3F1

OCC(Cl)(Cl)Cl [trichloroethanol (free)]
[1]
Conditions	concentration in blood [µg/mL]
0.1729 h	1.25
0.1865 h	2.02
0.2651 h	1.14
0.2753 h	0.828
0.3836 h	2.26
0.4311 h	1.34
0.5027 h	1.18
0.594 h	0.829
0.9111 h	1.11
0.9517 h	1.01
1.022 h	1.13
1.11 h	0.898
1.769 h	0.955
1.908 h	1.01
2.006 h	0.889
3.915 h	1.65
3.921 h	0.897
4.003 h	0.757
5.934 h	0.757
5.937 h	0.703
5.949 h	1.38
5.978 h	0.655
7.942 h	1.26
7.97 h	0.667
7.992 h	0.595
9.919 h	0.656
9.986 h	0.538
10.01 h	0.509
10.11 h	1.12
11.91 h	0.627
11.95 h	1.03
11.98 h	0.546
12.02 h	0.481
13.9 h	0.557
13.93 h	0.469
13.94 h	1.04
13.99 h	0.534
15.9 h	0.507
15.93 h	0.893
15.95 h	0.448
17.94 h	0.348
17.96 h	0.35
41 s	0.978
86 s	1.2

[1], during exposure
Conditions	concentration in blood [µg/mL]
-169 s	1.35
-3.506 h	0.437
-3.433 h	0.315
-3.408 h	0.626
-3.033 h	1.06
-3.009 h	0.547
-3 h	0.486
-2.975 h	0.327
-2.015 h	0.83
-2.001 h	1.56
-1.996 h	0.845
-1.989 h	0.628
-1.021 h	1.08
-1.008 h	1.89
-0.9983 h	0.79
-0.9843 h	0.968
-0.032 h	1.94

O=S(=O)([O-])C(F)(F)C(F)(F)C(F)(F)C(F)(F)C(F)(F)C(F)(F)F.[K+] [Perfluorohexane-1-sulphonic acid – potassium salt]
concentration in brain [ng/g], [2]
Conditions	3 h	6 h	12 h	24 h	48 h	192 h	528 h
F344	1890	1490	2110	1460	–	847	523
Harlan Sprague Dawley	1170	1070	951	731	515	–	–

concentration in plasma [µg/mL], [3], dosed: Perfluorohexane-1-sulphonic acid – potassium salt, oral, Male, F344
Conditions	0.25 h	1 h	3 h	6 h	12 h	24 h	192 h	528 h	864 h	1200 h
4 mg/kg	9.9	23.3	23.9	31	30.8	27.4	16.2	11.3	2.51	7.07
16 mg/kg	–	73.5	–	–	–	–	–	–	–	–

c1ccncc1 [Pyridine]
concentration in plasma [µg/mL], [3], dosed: Pyridine
Conditions	iv	oral
0.05 h, 5 mg/kg, Male, F344	5.52	–
0.25 h, 5 mg/kg, Male, F344	2.43	–
0.25 h, 10 mg/kg, Male, F344	4.14	–
0.5 h, 5 mg/kg, Male, F344	3.55	2.63
0.5 h, 25 mg/kg, Male, F344	–	16.5
1 h, 5 mg/kg, Male, F344	–	2.9
1 h, 25 mg/kg, Female, Harlan Sprague-Dawley	–	18.8
2 h, 5 mg/kg, Male, F344	2.39	2.92
2 h, 10 mg/kg, Male, F344	0.185	–
2 h, 25 mg/kg, Female, Harlan Sprague-Dawley	–	15.7
2 min, 10 mg/kg, Male, F344	4.39	0.716
4 h, 5 mg/kg, Male, F344	2.09	2.61
4 h, 25 mg/kg, Male, F344	–	15
5 min, 5 mg/kg, Male, F344	–	1.7
5 min, 10 mg/kg, Male, F344	2.28	–
5 min, 25 mg/kg, Male, F344	–	5.57
6 h, 5 mg/kg, Male, F344	1.64	1.55
6 h, 25 mg/kg, Male, F344	–	15.3
8 h, 5 mg/kg, Male, F344	1.62	1.07
8 h, 25 mg/kg, Female, Harlan Sprague-Dawley	–	15.4
9 h, 5 mg/kg, Male, F344	–	1.28
10 min, 10 mg/kg, Male, F344	–	3.82
11 h, 5 mg/kg, Male, F344	–	0.659
14 h, 25 mg/kg, Female, Harlan Sprague-Dawley	–	10
20 h, 25 mg/kg, Male, F344	–	2.91
20 min, 10 mg/kg, Female, Harlan Sprague-Dawley	–	2.72
20 min, 10 mg/kg, Male, F344	3.16	–
24 h, 25 mg/kg, Male, F344	–	1.64
40 h, 100 mg/kg, Male, F344	–	11.6
40 min, 10 mg/kg, Female, Harlan Sprague-Dawley	–	2.56
50 min, 10 mg/kg, Male, F344	3.22	–

C=CCc1ccc(OC)c(OC)c1 [Methyleugenol]
concentration in plasma [µg/mL], [3], dosed: Methyleugenol, 37 mg/kg
Conditions	Female	Male
0.25 h, iv, F344	7.96	7.18
0.5 h, iv, F344	2.47	2.44
0.5 h, oral, F344/N	0.0273	0.282
0.75 h, iv, F344	1.1	3.23
1 h, oral, F344/N	–	0.243
1.5 h, iv, F344	0.684	0.61
1.5 h, oral, F344/N	–	0.0396
2 h, oral, F344/N	–	0.0174
2 min, iv, F344	57.8	32.2
2 min, oral, F344/N	0.0292	0.0351
3 h, iv, F344	0.215	0.232
3 h, oral, F344/N	–	0.0124
4 h, oral, F344/N	–	0.0178
5 h, oral, F344/N	–	0.0156
5 min, iv, F344	27.4	26.7
5 min, oral, F344/N	0.108	0.0812
6 h, iv, F344	–	0.175
8 h, oral, F344/N	0.0178	0.00671
10 min, oral, F344/N	0.345	0.369
20 min, oral, F344/N	0.267	0.233

O=C(O)COc1ccc(Cl)cc1Cl [2,4-Dichlorophenoxyacetic acid]
concentration in plasma [µg/mL], [4]
Conditions	1.0 mg/kg	2.0 mg/kg	5.2 mg/kg
0.25 h, iv	6.98	–	–
0.25 h, oral	1.21	5.3	16
0.5 h, oral	3.03	3.48	16.8
1 h, iv	2.73	–	–
2 h, oral	0.486	2.9	16
2.5 h, iv	0.951	–	–
2.5 min, iv	7.58	–	–
2.5 min, oral	2.07	3.2	–
3 h, oral	0.47	1.95	12.8
4 h, iv	1.2	–	–
4 h, oral	0.164	–	6.84
5 min, iv	7.19	–	–
5 min, oral	3.13	5.97	11.3
6 h, iv	0.235	–	–
6 h, oral	0.123	0.39	1.25
8 h, oral	0.12	–	–
10 h, oral	–	–	0.459
10 min, iv	7.29	–	–
10 min, oral	1.36	5.5	–

[3], dosed: 2,4-Dichlorophenoxyacetic acid, Male, Sprague-Dawley
Conditions	concentration in plasma [µg/mL]
0.25 h, 2.0 mg/kg, iv	12.2
0.25 h, 7.0 mg/kg, oral	9.67
0.5 h, 2.0 mg/kg, iv	7.63
0.5 h, 7.0 mg/kg, oral	4.67
0.75 h, 2.0 mg/kg, iv	4.75
2 h, 2.0 mg/kg, iv	0.376
2 h, 7.0 mg/kg, oral	6.51
2.5 h, 2.0 mg/kg, iv	2.04
2.5 min, 2.0 mg/kg, iv	24.8
2.5 min, 7.0 mg/kg, oral	9.34
3 h, 2.0 mg/kg, iv	0.863
3 h, 7.0 mg/kg, oral	3.57
3.5 h, 2.0 mg/kg, iv	0.858
4 h, 2.0 mg/kg, iv	0.482
4 h, 7.0 mg/kg, oral	7.74
5 h, 7.0 mg/kg, oral	4.72
6 h, 7.0 mg/kg, oral	0.472
10 min, 2.0 mg/kg, iv	14.1
10 min, 7.0 mg/kg, oral	12.5

CCC1(c2ccccc2)C(=O)NCNC1=O [Primidone]
concentration in plasma [µg/mL], [3], dosed: Primidone, oral
Conditions	0.25 h	0.5 h	1.5 h	3 h	6 h	9 h	12 h	18 h	22 h
30 mg/kg, Female, F344	18.1	–	23.9	24.9	11.9	5.7	2.2	0.5	–
30 mg/kg, Male, F344	8.9	–	10	6.7	0.5	–	–	–	–
80 mg/kg, Female, F344	16.9	40	48.8	75.9	36.4	23.4	12.6	3.6	0.4
80 mg/kg, Female, Harlan Sprague-Dawley	9.9	27.2	–	–	–	–	1.5	–	–
80 mg/kg, Male, F344	–	–	34.7	37.1	14	4	–	–	–
130 mg/kg, Female, F344	–	19.6	78.9	53.3	24.6	53.8	5.5	–	0.1
130 mg/kg, Female, Harlan Sprague-Dawley	–	–	51.9	–	–	–	–	–	–
130 mg/kg, Male, F344	–	–	51.5	–	22.8	9	–	–	–
130 mg/kg, Male, Harlan Sprague Dawley	–	55.1	–	100	–	–	22.3	–	–
